Test results published in ChEMBL document CHEMBL6109089, “Design, synthesis and optimization of Apcin analogues as Cdc20 inhibitors for triple-negative breast cancer therapy” (Eur J Med Chem, 2025).
The source made the active and inactive calls. The rule behind the calls is not given here.

Columns and labels:
MDA-MB-231 [1] = experiment: Antiproliferative activity against human MDA-MB-231 cells measured after 3 days by CCK-8 method; settings: MDA-MB-231, 72 h
MDA-MB-435 = experiment: Antiproliferative activity against human MDA-MB-435 cells measured after 3 days by CCK-8 method; settings: MDA-MB-435, 72 h
HeLa = experiment: Antiproliferative activity against human HeLa cells measured after 48 hrs by CCK-8 method
[2] = Antiproliferative activity against human MCF-10A cells assessed as inhibition of cell growth measured after 48 hrs by CCK-8 method; assay type: toxicity, cell-based
[3] = Antiproliferative activity against human HK-2 cells assessed as inhibition of cell growth measured after 48 hrs by CCK-8 method; assay type: toxicity, cell-based
[4] = Antiproliferative activity against rat H9c2 cells assessed as inhibition of cell growth measured after 48 hrs by CCK-8 method; assay type: toxicity, cell-based
MDA-MB-231 [5] = experiment: Induction of cell cycle arrest in human MDA-MB-231 cells assessed as increase in accumulation of cells at G2/M phase at 2 uM measured after 24 hrs by PI staining based flow cytometry analysis (reference value: 26.38%); assay type: functional
MDA-MB-231 [6] = experiment: Induction of cell cycle arrest in human MDA-MB-231 cells assessed as increase in accumulation of cells at G2/M phase at 4 uM measured after 24 hrs by PI staining based flow cytometry analysis (reference value: 26.38%); assay type: functional
MDA-MB-231 [7] = experiment: Induction of cell cycle arrest in human MDA-MB-231 cells assessed as increase in accumulation of cells at G2/M phase at 8 uM measured after 24 hrs by PI staining based flow cytometry analysis (reference value: 26.38%); assay type: functional
MDA-MB-231 [8] = experiment: Induction of cell cycle arrest in human MDA-MB-231 cells assessed as upregulation of phosphorylated histone H3 level at 2 to 4 uM measured after 12 hrs by Western blot analysis; assay type: functional, cell-based; settings: dose 2-4 µM
MDA-MB-231 [9] = experiment: Induction of apoptosis in human MDA-MB-231 cells assessed as increase in cleaved PARP expression at 2 to 4 uM measured after 12 hrs by Western blot analysis; assay type: functional, cell-based; settings: dose 2-4 µM
MDA-MB-231 [10] = experiment: Induction of apoptosis in human MDA-MB-231 cells assessed as viable cells at 2 uM incubated for 24 hrs by Annexin V-FITC/PI staining based flow cytometry analysis (reference value: 94.1%); assay type: functional; settings: read-out: Activity
MDA-MB-231 [11] = experiment: Induction of apoptosis in human MDA-MB-231 cells assessed as viable cells at 4 uM incubated for 24 hrs by Annexin V-FITC/PI staining based flow cytometry analysis (reference value: 94.1%); assay type: functional; settings: read-out: Activity
MDA-MB-231 [12] = experiment: Induction of apoptosis in human MDA-MB-231 cells assessed as viable cells at 8 uM incubated for 24 hrs by Annexin V-FITC/PI staining based flow cytometry analysis (reference value: 94.1%); assay type: functional; settings: read-out: Activity
MDA-MB-231 [13] = experiment: Induction of apoptosis in human MDA-MB-231 cells assessed as early apoptotic cells at 2 uM incubated for 24 hrs by Annexin V-FITC/PI staining based flow cytometry analysis (reference value: 5.40%); assay type: functional
MDA-MB-231 [14] = experiment: Induction of apoptosis in human MDA-MB-231 cells assessed as early apoptotic cells at 4 uM incubated for 24 hrs by Annexin V-FITC/PI staining based flow cytometry analysis (reference value: 5.40%); assay type: functional
MDA-MB-231 [15] = experiment: Induction of apoptosis in human MDA-MB-231 cells assessed as early apoptotic cells at 8 uM incubated for 24 hrs by Annexin V-FITC/PI staining based flow cytometry analysis (reference value: 5.40%); assay type: functional
MDA-MB-231 [16] = experiment: Induction of apoptosis in human MDA-MB-231 cells assessed as late apoptotic cells at 2 uM incubated for 24 hrs by Annexin V-FITC/PI staining based flow cytometry analysis (reference value: 0.46%); assay type: functional
MDA-MB-231 [17] = experiment: Induction of apoptosis in human MDA-MB-231 cells assessed as late apoptotic cells at 4 uM incubated for 24 hrs by Annexin V-FITC/PI staining based flow cytometry analysis (reference value: 0.46%); assay type: functional
MDA-MB-231 [18] = experiment: Induction of apoptosis in human MDA-MB-231 cells assessed as late apoptotic cells at 8 uM incubated for 24 hrs by Annexin V-FITC/PI staining based flow cytometry analysis (reference value: 0.46%); assay type: functional
MDA-MB-231 [19] = experiment: Induction of apoptosis in human MDA-MB-231 cells assessed as necrotic cells at 2 uM incubated for 24 hrs by Annexin V-FITC/PI staining based flow cytometry analysis (reference value: 0.033%); assay type: functional
MDA-MB-231 [20] = experiment: Induction of apoptosis in human MDA-MB-231 cells assessed as necrotic cells at 4 uM incubated for 24 hrs by Annexin V-FITC/PI staining based flow cytometry analysis (reference value: 0.033%); assay type: functional
MDA-MB-231 [21] = experiment: Induction of apoptosis in human MDA-MB-231 cells assessed as necrotic cells at 8 uM incubated for 24 hrs by Annexin V-FITC/PI staining based flow cytometry analysis (reference value: 0.033%); assay type: functional
MDA-MB-231 [22] = experiment: Induction of DNA damage in human MDA-MB-231 cells assessed as increase in gamma-H2AX fluorescence intensity at 1 to 4 uM incubated for 48 hrs by immunofluorescence staining based analysis; assay type: functional, cell-based; settings: dose 1-4 µM
MDA-MB-231 [23] = experiment: Induction of DNA damage in human MDA-MB-231 cells assessed as increase in gamma-H2AX expression at 1 to 4 uM incubated for 24 hrs by Western blot analysis; assay type: functional, cell-based; settings: dose 1-4 µM
MDA-MB-231 [24] = experiment: Antiproliferative activity against human MDA-MB-231 cells assessed as reduction in number of cells in S phase at 1 to 4 uM measured after 48 hrs by EdU incorporation assay; assay type: functional, cell-based; settings: dose 1-4 µM
MDA-MB-231 [25] = experiment: Antitumor activity against human MDA-MB-231 cells xenografted in BALB/c nude mouse model assessed as reduction in tumor volume at 15 to 30 mg/kg, ip administered daily for 18 days by vernier caliper method; assay type: functional, organism-based; settings: dose 15-30 mg/kg, time 18.0 day
MDA-MB-231 [26] = experiment: Antitumor activity against human MDA-MB-231 cells xenografted in BALB/c nude mouse model assessed as reduction in tumor weight at 15 to 30 mg/kg, ip administered daily for 18 days by vernier caliper method; assay type: functional, organism-based; settings: dose 15-30 mg/kg, time 18.0 day
MDA-MB-231 [27] = experiment: Antitumor activity against human MDA-MB-231 cells xenografted in BALB/c nude mouse model assessed as reduction in tumor growth at 15 mg/kg, ip administered daily for 18 days by vernier caliper method relative to control; assay type: functional; design: scale not given: the % may be the effect or the level left; settings: time 18 day
MDA-MB-231 [28] = experiment: Antitumor activity against human MDA-MB-231 cells xenografted in BALB/c nude mouse model assessed as reduction in tumor growth at 30 mg/kg, ip administered daily for 18 days by vernier caliper method relative to control; assay type: functional; design: scale not given: the % may be the effect or the level left; settings: time 18 day
[29] = Toxicity in BALB/c nude mouse assessed as effect on body weight at 15 to 30 mg/kg, ip administered daily for 18 days; assay type: organism-based; settings: in vivo, 432 h, dose 15-30 mg/kg, time 18 day
[30] = Toxicity in BALB/c nude mouse assessed as change in ALT level in liver serum at 15 to 30 mg/kg, ip administered daily for 18 days; assay type: organism-based; settings: in vivo, 432 h, dose 15-30 mg/kg, time 18 day
[31] = Toxicity in BALB/c nude mouse assessed as change in AST level in liver serum at 15 to 30 mg/kg, ip administered daily for 18 days; assay type: organism-based; settings: in vivo, 432 h, dose 15-30 mg/kg, time 18 day
[32] = Toxicity in BALB/c nude mouse assessed as change in BUN level in kidney serum at 15 to 30 mg/kg, ip administered daily for 18 days; assay type: organism-based; settings: in vivo, 432 h, dose 15-30 mg/kg, time 18 day
[33] = Toxicity in BALB/c nude mouse assessed as change in CREA level in kidney serum at 15 to 30 mg/kg, ip administered daily for 18 days; assay type: organism-based; settings: in vivo, 432 h, dose 15-30 mg/kg, time 18 day
[34] = Toxicity in BALB/c nude mouse assessed as change in CK level in heart serum at 15 to 30 mg/kg, ip administered daily for 18 days; assay type: organism-based; settings: in vivo, 432 h, dose 15-30 mg/kg, time 18 day
[35] = Toxicity in BALB/c nude mouse assessed as change in LDH level in heart serum at 15 to 30 mg/kg, ip administered daily for 18 days; assay type: organism-based; settings: in vivo, 432 h, dose 15-30 mg/kg, time 18 day
[36] = Toxicity in BALB/c nude mouse assessed as effect on liver at 15 to 30 mg/kg, ip measured after 18 days; assay type: organism-based; settings: in vivo, 432 h, dose 15-30 mg/kg, time 18 day
[37] = Toxicity in BALB/c nude mouse assessed as effect on kidney at 15 to 30 mg/kg, ip measured after 18 days; assay type: organism-based; settings: in vivo, 432 h, dose 15-30 mg/kg, time 18 day
[38] = Toxicity in BALB/c nude mouse assessed as effect on heart at 15 to 30 mg/kg, ip measured after 18 days; assay type: organism-based; settings: in vivo, 432 h, dose 15-30 mg/kg, time 18 day
MDA-MB-231 [39] = experiment: cells; settings: Homo sapiens, MDA-MB-231, 48 h
Description: Antiproliferative activity against human MDA-MB-231 cells assessed as inhibition of cell growth measured after 48 hrs by CCK-8 method

MDA-MB-436 = experiment: cells; settings: Homo sapiens, MDA-MB-436, 48 h
Description: Antiproliferative activity against human MDA-MB-436 cells assessed as inhibition of cell growth measured after 48 hrs by CCK-8 method

MCF7 = experiment: cells; settings: Homo sapiens, MCF7, 48 h
Description: Antiproliferative activity against human MCF7 cells assessed as inhibition of cell growth measured after 48 hrs by CCK-8 method

Cc1ncsc1-c1ccc(CNC(=O)[C@@H]2C[C@@H](O)CN2C(=O)[C@@H](NC(=O)CCOCCOCCOCCOCCOCCC(=O)NCCCOC(=O)NC(Nc2ncccn2)C(Cl)(Cl)Cl)C(C)(C)C)cc1 (stereo partly drawn)
IC50 (MDA-MB-231 [1]): 2.6 µM
IC50 (MDA-MB-435): 2 µM

Nc1nc(F)nc2c1ncn2C(NC(=O)NCCN1CCOCC1)C(Cl)(Cl)Cl (stereo not drawn)
IC50 (HeLa): 0.06 µM

O=C(NC(Nc1nc(Cl)cc(Nc2ccc(C(F)(F)F)cc2)n1)C(Cl)(Cl)Cl)OCCNC(=O)c1cnc(C(F)(F)F)s1 (stereo not drawn)
IC50 at 48 h [2]: 23.9 µM
IC50 at 48 h [3]: 23.4 µM
IC50 at 48 h [4]: 19.4 µM
Activity (MDA-MB-231 [5]): 26.89%
Activity (MDA-MB-231 [6]): 34.91%
Activity (MDA-MB-231 [7]): 54.71%
Activity (MDA-MB-231 [8]): Active
Activity (MDA-MB-231 [9]): Active
viability at 2 µM (MDA-MB-231 [10]): 91.7%
viability at 4 µM (MDA-MB-231 [11]): 85.4%
viability at 8 µM (MDA-MB-231 [12]): 52.4%
Activity (MDA-MB-231 [13]): 7.46%
Activity (MDA-MB-231 [14]): 13.4%
Activity (MDA-MB-231 [15]): 38.8%
Activity (MDA-MB-231 [16]): 0.26%
Activity (MDA-MB-231 [17]): 0.62%
Activity (MDA-MB-231 [18]): 7.61%
Activity (MDA-MB-231 [19]): 0.01%
Activity (MDA-MB-231 [20]): 0.62%
Activity (MDA-MB-231 [21]): 1.1%
Activity (MDA-MB-231 [22]): Active
Activity (MDA-MB-231 [23]): Active
Activity (MDA-MB-231 [24]): Active
Activity (MDA-MB-231 [25]): Active
Activity (MDA-MB-231 [26]): Active
Activity (MDA-MB-231 [27]): 86%
Activity (MDA-MB-231 [28]): 90%
Activity [29]: Non-toxic
Activity [30]: Non-toxic
Activity [31]: Non-toxic
Activity [32]: Non-toxic
Activity [33]: Non-toxic
Activity [34]: Non-toxic
Activity [35]: Non-toxic
Activity [36]: Non-toxic
Activity [37]: Non-toxic
Activity [38]: Non-toxic
IC50 (MDA-MB-231 [39]): 3.28 µM
IC50 (MDA-MB-436): 3.86 µM
IC50 (MCF7): 13.8 µM
